# Data taken from patent publication US8492313B2, “Synergistic herbicidal combinations comprising tembotrione” (Bayer Cropscience AG, priority 2009, dated 2013).
# Test system: IPOHE (Ipomoea hederacea)
# Assay: Post-emergence action against IPOHE
# Type: in vivo
# Protocol: The herbicidal activity of the active substances or active substance mixtures was evaluated visually from the treated variants in comparison with untreated control variants. In this connection, damage to and development of all plant parts above ground was included. The evaluation was carried out according to a percentage scale (100% action=all plants dead; 50% action=50% of the plants and green plant parts dead; 0% action=no recognizable action=as untreated control plot).
# Seeds or root pieces of mono- and dicotyledonous weeds are placed in sandy clay soil in pots, covered with earth and secured in a greenhouse under good growing conditions (temperature, air humidity, water supply). Approximately three weeks after sowing, the test plants are treated with the compositions according to the invention. The compositions according to the invention formulated as wettable powders or as emulsion concentrates are sprayed, in spray application, on to the green plant parts in different dosages with a water application rate of 600 to 800 l/ha (corrected). Immediately up to a few days after application, the test receptacles accumulate water over the ground surface by up to 30 mm. With the water application (submerged application), on the other hand, the ground in the closed test receptacle is already covered with the paddy water up to 30 mm at the time of the application. The formulated active substances are here added directly to the paddy water. After an exposure time of the test plants in the greenhouse of an additional 3 to 4 weeks under optimum growing conditions, the effect of the preparations is evaluated visually in comparison with untreated controls. […] In this connection, actions of the combinations according to the invention which exceed the formal sum of the actions of the herbicides when applied individually are frequently observed. The values observed for the tests show, with suitable low dosages, an action of the combinations which lies above the expected values according to Colby.
# If the observed activity values already exceed the formal sum of the values for the tests with individual applications, then they likewise exceed the expected value according to Colby, which is calculated according to the following formula and is likewise regarded as an indication of synergy (cf. S. R. Colby in Weeds, 15 (1967), pp. 20 to 22):
# In this connection: • A, B=action of the component A or B in percent at a dosage of a or b grams ai/ha. • E=expected value in % at a dosage of a+b grams ai/ha.
# The abbreviation IPOHE is the harmful plant Ipomoea hederacea.
# [1] = dosage 50 g/ha, visual rating vs untreated control
smiles,measurement,setting,value
"CC(C)c1nn(C(=O)NC(C)(C)C)c(=O)n1N [B1, amicarbazone]",Action against IPOHE,dosage 125 g/ha,20%
"Nc1cc(Cl)nc(C(=O)O)c1Cl [B2, aminopyralid]",Action against IPOHE,dosage 75 g/ha,30%
"Nc1nc(C2CC2)nc(C(=O)[O-])c1Cl.[K+] [B4, aminocyclopyrachlor]",Action against IPOHE,[1],35%
"COc1cc(OC)nc(NC(=O)NS(=O)(=O)Nc2ccccc2C(=O)C2CC2)n1 [B6, cyclosulfamuron]",Action against IPOHE,[1],20%
"Cc1ccc2c(c1)[C@H](Nc1nc(N)nc(C(C)F)n1)[C@@H](C)C2 (some centres unmarked) [B7, indaziflam]",Action against IPOHE,dosage 25 g/ha,25%
"COCC(=O)OC(c1ncccc1S(=O)(=O)NC(=O)Nc1nc(OC)cc(OC)n1)C(C)F (centres unmarked) [B8, flucetosulfuron]",Action against IPOHE,[1],20%
"CC(C)N(C(=O)n1cnn(-c2ccc(Cl)cc2Cl)c1=O)c1ccc(F)cc1F [B9, ipfencarbazone]",Action against IPOHE,[1],25%
"C[C@@H](Oc1ccc(Oc2nc3ccc(Cl)cc3o2)cc1)C(=O)N(C)c1ccccc1F [B10, metamifop]",Action against IPOHE,dosage 75 g/ha,15%
"COc1cc(OC)nc(NC(=O)NS(=O)(=O)Nc2ccccc2C(=O)N(C)C)n1 [B11, orthosulfamuron]",Action against IPOHE,dosage 30 g/ha,40%
"COc1cnc(OC)n2nc(NS(=O)(=O)c3c(OCC(F)F)cccc3C(F)(F)F)nc12 [B12, penoxsulam]",Action against IPOHE,dosage 15 g/ha,20%
"CCc1cc(C)cc(CC)c1-c1c(OC(=O)C(C)(C)C)n2n(c1=O)CCOCC2 [B13, pinoxaden]",Action against IPOHE,dosage 30 g/ha,15%
"CCCc1ccc2nc(Cl)c(S(=O)(=O)NC(=O)Nc3nc(OC)cc(OC)n3)n2n1 [B14, propyrisulfuron]",Action against IPOHE,[1],30%
"C#CCN(C)c1c(C#N)cnn1-c1nn2c(c1Cl)CCCC2 [B15, pyraclonil]",Action against IPOHE,dosage 75 g/ha,30%
"Cc1nn(C)c(O)c1C(=O)c1ccc(C(F)(F)F)cc1S(C)(=O)=O [B16, pyrasulfotole]",Action against IPOHE,dosage 25 g/ha,50%
"COCc1cccc(C(O)c2nc(OC)cc(OC)n2)c1NS(=O)(=O)C(F)F (centres unmarked) [B17, pyrimisulfan]",Action against IPOHE,[1],20%
"Cn1nc(C(F)(F)F)c(CS(=O)(=O)C2=NOC(C)(C)C2)c1OC(F)F [B18, pyroxasulfone]",Action against IPOHE,dosage 75 g/ha,15%
"COc1cc(OC)n2nc(NS(=O)(=O)c3c(C(F)(F)F)ccnc3OC)nc2n1 [B19, pyroxsulam]",Action against IPOHE,dosage 15 g/ha,20%
"CC(C)N(C)S(=O)(=O)NC(=O)c1cc(-n2c(=O)cc(C(F)(F)F)n(C)c2=O)c(F)cc1Cl [B20, saflufenacil]",Action against IPOHE,dosage 10 g/ha,45%
"COc1cc(OC)nc(NC(=O)NS(=O)(=O)c2c(C3=NOCC(C)O3)c(Cl)nn2C)n1 (centres unmarked) [B21, 3-chloro-N-[(4,6-dimethoxypyrimidin-2-yl)carbamoyl]-1-methyl-4-(5-methyl-5,6-dihydro-1,4,2-dioxazin-3-yl)-1H-pyrazole-5-sulfonamide]",Action against IPOHE,[1],15%
CS(=O)(=O)c1ccc(C(=O)C2C(=O)CCCC2=O)c(Cl)c1COCC(F)(F)F [tembotrione],Action against IPOHE,[1],40%
